Measurements as given in patent US20080220416A1, “Compositions for Inhibiting Cell Growth and Inducing Apoptosis in Cancer Cells and Methods of Use Thereof” (THE BOARD OF TRUSTEES OF THE UNIVERSITY OF ILLINOI, priority 2004, published 2008).
Peptide text beside a SMILES is read from it. * marks the point of attachment. Cbz = O=C(OCc1ccccc1)*

What was measured:
NOXA = test: Western blot of NOXA after proteasome inhibitors in normal melanocytes; assay type: cell-based, human; details: 18 hrs
Excerpt: A panel of melanoma cells were used to assess the effect of bortezomib on pro-apoptotic proteins. RJ002L, C8161, MUM2B and SK-MeI-28 melanoma cells, as well as two normal melanocyte cultures (MC-010 and MC-012) were examined. Prior to testing, the RJ002L melanoma cell lines were maintained in RPMI supplemented with 10% FBS. Late passage melanoma cell lines (C8161, MUM2B and SK-Me1028) were utilized as previously described (Welch D et al., 1991, Int J Cancer 47:227-237; Bittner M et al., 2000, Nature 406:536-540). Normal human melanocytes were isolated from neonatal foreskins and cultured as previously described (Qin J et al., 2004, Mol Cancer Ther 3:895-902). Proliferating cells were examined by Western blot analysis before and after 18 hrs of exposure to bortezomib (1 μM). Antibodies were obtained as follows: Bad (SC-8044), Bcl-2 (SC-7382), Bcl-xL (SC-634), Mcl-1 (SC-819), Bak (SC-832) from Santa Cruz Biotechnology (Santa Cruz, Calif.); NOXA (OP180) from Calbiochem; Bid, Bim and PUMA from Cell Signaling (Beverly, Mass.); BAX from Upstate (Charlottesville, Va.); and β-actin from ICN (Irvine, Calif.). For the Western blot analysis, whole cell extracts were prepared as previously described (Denning M et al., 1998, J Biol Chem 273:29995-30002). Briefly, cells were harvested by scraping monolayers and washed with PBS. Cell pellets were resuspended in CHAPS buffers containing a protease inhibitor cocktail. Extracts were vigorously shaken at 4° C. for 15 min followed by centrifugation. Supernatants were collected and protein concentration determined using Bio-Rad reagent. Thirty to 50 microgram protein samples were resolved by SDS-polyacrylamide gel electrophoresis and transferred to polyvinylidene difluoride membrane by electroblotting. Membranes were probed with the various primary antibodies overnight at 4° C., followed by detection using ECL reagents (Amersham Pharmacia Biotech, Piscataway, N.J.) according to manufacturer's instructions.
Two other proteasome inhibitors, lactasytsin and MG-132, were tested for the ability to induce NOXA in melanoma cells and melanocytes. […]

normal melanocytes = test: Proteasome inhibitors, apoptosis of normal melanocyte cultures (Annexin V FITC flow cytometry); assay type: cell-based, human
Description: The proteasome inhibitors lactacystin, MG-132, and bortezomib were evaluated for the ability to induce apoptosis in malignant melanoma cell lines (n=3) including an early passage line, RJ002L. MG-132 was obtained from Calbiochem (La Jolla, Calif.) and dissolved in DMSO. Lactacystin was purchased from Sigma Chemical Co. (St. Louis, Mo.) and dissolved in PBS. Bortezomib was obtained from a pharmacy as VELCADE (bortezomib) for Injection from a single use vial for intravenous use only (Millennium Pharmaceuticals, Cambridge, Mass.). A cell line with wild-type p53 (RJ002L) and two melanoma cell lines with mutant p53 alleles (C8161 and MUM2B) were included in this study. Two additional melanoma cell lines were also used: cutaneous SK-MeI-28 cells and primary, early passage MG012 cells. In addition, five normal melanocyte culture cell lines (MC-005, MC-006, MC-008, MC-009 and MC-011) were examined. Prior to testing, the melanoma cell lines were maintained in RPMI supplemented with 10% FBS. Normal human melanocytes were isolated from neonatal foreskins as previously described (Qin J et al., 2004, Mol Cancer Ther 3:895-902, 2004) and cultured with medium 154 containing growth supplements (Cascade Biologics, Portland, Oreg.).
To assess the effect of proteasome inhibitors on the cell lines, the cells were grown in suitable culture media as described above. […]
Following treatment with the proteasome inhibitors, the melanoma and melanocyte cell cultures were assayed for apoptotic cells using the APO TARGET Annexin V FITC staining kit (Biosource, Camarillo, Calif.) according to the manufacturer's instructions followed by flow cytometric analysis using FACScaliber (Becton Dickinson, Palo Alto, Calif.) as described in Qin, J. et al., 2001, Nat Med 7: 385-386. In some cases, cell cycle and apoptosis analysis was measured using propidium iodide staining and flow cytometry as described. […] For cell analysis, DNA histograms were analyzed using MultiCycle for Windows (Phoenix Flow Systems, San Diego, Calif.) as described in Denning, M. F. et al., 1998, J Biol Chem 273: 29995-30002.

CC(C)C[C@@H](C=O)NC(=O)[C@H](CC(C)C)NC(=O)[C@H](CC(C)C)NC(=O)OCc1ccccc1 [MG-132, benzoxycarbonyl-Leucyl-Leucyl-Leucyl-aldehyde] (Cbz-Leu-Leu-Leu-aldehyde)
NOXA induction (NOXA; MC-004, MC-005, MC-006, MC-008, 1 μM or 10 μM): no induction of NOXA in any of the normal melanocytes
cells undergoing apoptosis (normal melanocytes; MC-005, MC-006, MC-008, 24 hrs, 1, 5 or 10 μM): No more than 10%

CC(C)C[C@H](NC(=O)[C@H](Cc1ccccc1)NC(=O)c1cnccn1)B(O)O [bortezomib, N-(2-pyrazine)carbonyl-L-phenylalanine-L-leucine boronic acid]
NOXA induction (NOXA; MC-010, MC-012, 1 μM): did not exhibit NOXA induction
apoptotic response (normal melanocytes; MC009 and MC011, 0.01 to 10 μM, 24 hrs continuous exposure): less than 10%
